Measurements as given in patent US10111842B2, “Eutectic solvents and uses thereof” (UNIVERSITY OF OSLO, priority 2014, dated 2018).

Tests used:
[1] = test system: Enterococcus faecalis (ATCC 19433); assay: Bacterial studies, blue light 9.5 J/cm^2 or dark, drop plate CFU (Examples 4-6); assay type: cell-based
Description: (§1) Briefly, the components were mixed and dissolved in warm water (˜50° C.) before evaporation of the solvent at 45° C. for 15 min with a rotatory evaporator. The resulting NADES were transferred to polypropylene tubes with a tight cap. The individual components of each NADES were also prepared as solutions in MilliQ water in a concentration similar to the concentration in the final NADES preparation. All samples were diluted 1:1 with bacterial suspension (OD600 0.03) or 1:50, 1:100 and 1:200 with phosphate buffered saline (PBS, pH 7.4, Lonza, Verviers, Belgium) prior to dilution 1:1 with the bacterial suspension immediately before the bacterial studies.
(§2) The overnight cultures were centrifuged (4000 g, 22° C., 10 min), the medium replaced and diluted with PBS to OD600 0.03. The bacterial suspensions were mixed 1:1 with the samples described in the previous paragraph. A volume of 200 μl from each sample was transferred to the first and seventh well on each row on a 96 well plate (Nunclon sterile 96 well plate with lid, Thermo Fischer Scientific, Waltham, Mass.). Two identical plates were made each time, one for light treatment and one for dark controls. The plates containing E. faecalis or S. aureus samples were incubated for 10 min (37° C.), irradiated with blue light for 10 min (corresponding to 9.5 J/cm^2±10%) and incubated again for 10 min (37° C.). The plates containing E. coli samples were incubated for 30 min (37° C.), irradiated with blue light for 30 min (corresponding to 27 J/cm^2±10%) and incubated again for 30 min (37° C.). The plates containing the dark controls were treated similarly, but covered with aluminium foil during the irradiation period and placed beside the irradiation chamber. […] After treatment, the samples were diluted according to the 6×6 drop plate procedure, modified to 4×4 (each treatment was performed with four parallels). A volume of 15 μl from each dilution was then plated onto TSB agar plates, left to dry for a few minutes and incubated overnight (37° C.). Viable colony forming units (CFU)/ml were calculated by counting the CFUs, multiplying with the dilution factor and dividing by the application volume.
(§3) Briefly, the components of each NADES (see Table 7) were mixed and dissolved in a round flask with 50 ml of warm water (˜50° C.) before evaporation of the solvent at 45° C. for 15 min with a rotatory evaporator. TMAP (Frontier Scientific, Inc., Logan, Utah, USA) was then added to each NADES. […] The final concentration of TMAP was 1 nM. Samples of TMAP were also prepared in purified water (MilliQ) to be 1 nM after dilution 1:200 with PBS (pH 7.4, Lonza, Verviers, Belgium) or with a 6.8 mM citric acid solution (pH ˜4) and bacterial suspension.
(§4) TCPP (Frontier Scientific, Inc., Logan, Utah, USA) was added to each NADES. […] The final TCPP concentrations were 0.5 nM-1 μM. Samples of TCPP were also prepared in ethanol to be 1 nM-1 μM after dilution 1:200 with PBS (pH 7.4, Lonza, Verviers, Belgium) or with a 6.8 mM citric acid solution (pH ˜4) and bacterial suspension.

[2] = test system: Staphylococcus aureus (strain Newman); assay: as above; assay type: cell-based
Description: as §1, §2, §3, §4

[3] = test system: Escherichia coli (ATCC 25922); assay: Bacterial studies, blue light 27 J/cm^2 or dark, drop plate CFU (Examples 4-6); assay type: cell-based
Description: as §1, §2, §3, §4

[4] = test system: S. epidermidis (ATCC 35984); assay: Phototoxicity studies, blue light 9.5 J/cm^2 or dark (Example 7); assay type: cell-based, Staphylococcus epidermidis; conditions: ±SD, n = 4
Description: as §2
(§5) The concentrations were adjusted give a final concentration of 1-20 nM porphyrin in the bacterial suspension after dilution with PBS (see Table 9). Aqueous solutions of 2.7 M citric acid, 2.3 M xylitol, 2.5 M sucrose, 5 M choline chloride and pure NADES, respectively, were used to investigate the toxicity of the individual compounds and NADES without a photosensitiser. The concentrations of the excipients were the same as in the respective NADES after evaporation of unbound water. The solutions were diluted totally 1:200 (or more) in the bacterial studies.
(§6) The treatments were performed with four parallels.
(§7) Gram-positive bacteria are generally considered to be more susceptible to photodynamic therapy than Gram-negative bacteria. Therefore, S. epidermidis was incubated for 10 min (37° C.), irradiated with blue light for 10 min (9.5 J/cm^2) and incubated again for 10 min while K. pneumoniae and P. aeruginosa were incubated for 30 min (37° C.), irradiated with blue light for 30 min (27 J/cm^2) and incubated again for 30 min.

[5] = test system: K. pneumoniae (ATCC 31844); assay: Phototoxicity studies, blue light 27 J/cm^2 or dark (Example 7); assay type: cell-based, Klebsiella pneumoniae; conditions: ±SD, n = 4
Description: as §2, §5, §6, §7

[6] = test system: P. aeruginosa (ATCC 9027); assay: as above; assay type: cell-based, Pseudomonas aeruginosa
Description: as §2, §5, §6, §7

[7] = test system: C. albicans (ATCC CRM-10231); assay: Antifungal toxicity studies, blue light 27 J/cm^2 or dark (Example 8); assay type: cell-based, Candida albicans
Description: Briefly, the components of each NADES (see Table 13) were mixed and dissolved in a round flask with 50 ml of warm water ( 50° C.) before evaporation of the solvent at 45° C. for 15 min with a rotatory evaporator. The pure […] 35 and NADES 39 were mixed undiluted or after dilution 1:50 with phosphate buffered saline (PBS, Lonza, Verviers, Belgium) with the yeast suspension (1:1) in the toxicity studies. […] The concentrations of the excipients were the same as in the respective NADES after evaporation of unbound water. The solutions were diluted totally 1:1 or 1:100 with PBS and yeast suspension in the toxicity studies. […] The overnight cultures were centrifuged (4000 g, 22° C., 10 min), the medium replaced and diluted with PBS to OD600 0.1.

[8] = Polarity (ENR) testing with Nile red; assay type: physicochemical; conditions: Nile red absorption maximum
Description: Polarity (ENR) testing of NADES was performed with Nile red (NR) as a solvatochromatic probe. A small amount of NR was added to each deep eutectic solvent. The recorded absorption maximum (λmax) of NR was applied in the formula ENR (kcal/mol^−1)=hcλmaxNA=28591/λmax where h is Planck's constant, c is the velocity of light and NA is Avogadro's number (Ogihara W, et al., Chem Lett 2004; 33: 1414-1415; Saxena R, et al., Chem Phys Lipids 2014; 183: 1-8).

| Compound | toxicity to E. faecalis ([1]; 2.7 M solution, dilution ratios 1:1 up to 1:100) | toxicity to E. faecalis ([1]; dilution 1:200, total treatment 30 min) | toxicity / eradication of S. aureus ([2]; dilution 1:1 with bacterial suspension) | toxicity to S. aureus ([2]; dilution 1:100) | toxicity / eradication of E. coli ([3]; dilution 1:1, with and without blue light) | phototoxicity to E. coli ([3]; dilution 1:100 (up to 1:100) with PBS, blue light) | % survival (9.5 J/cm^2) ([4]; Dilution 1:200, blue light) | % survival (dark) ([4]; Dilution 1:200, no irradiation) | % survival (27 J/cm^2) ([5]; Dilution 1:200, blue light) | % survival (dark) ([5]; Dilution 1:200, no irradiation) | % survival (27 J/cm^2) ([6]; Dilution 1:400, blue light, ±SD, n = 4) | % survival (dark) ([6]; Dilution 1:400, no irradiation, ±SD, n = 4) | toxicity to P. aeruginosa ([6]; individual components of NADES 35, dilution 1:800) | reduction in viable C. albicans after incubation in the dark ([7]; 2.7 M diluted 1:1) | reduction in viable C. albicans after light treatment ([7]; 2.7 M diluted 1:1, 27 J/cm^2 blue light) | ENR [8] |
| --- | --- | --- | --- | --- | --- | --- | --- | --- | --- | --- | --- | --- | --- | --- | --- | --- |
| O=C(O)CC(O)(CC(=O)O)C(=O)O [Citric acid] | toxic | did not reduce the number of viable colony forming units | complete eradication | not toxic anymore | very toxic | killed all the bacteria present | 0.1 ± 0.0% | 0.7 ± 0.3% | 145 ± 2% | 38 ± 18% | 6 ± 2% | 37 ± 9% | not toxic at all | slight, though significant, reduction | 73±8% |  |
| CO [methanol] |  |  |  |  |  |  |  |  |  |  |  |  |  |  |  | 51.9 kcal/mol |
| O [water] |  |  |  |  |  |  |  |  |  |  |  |  |  |  |  | 48.2 kcal/mol |
